Data on 11 compounds can be found in ChEMBL document CHEMBL1123646, “2-Phenylpyrroles as conformationally restricted benzamide analogues. A new class of potential antipsychotics. 1” (J Med Chem, 1987).

One test has as its target D(2) dopamine receptor (Rattus norvegicus, UniProt P61169). Put plainly: Ability to inhibit the [3H]spiperone binding to striatum Dopamine receptor D2 was determined in rat. The class given is tissue-based.
The subject of test [1] is Mus musculus. The experiment in a line: Antagonism of apomorphine-induced climbing in mice when administered intraperitoneally 30 min prior to apomorphine (1 mg/kg). The conditions noted are these: ip.
The test system of test [2] is Rattus norvegicus. Put plainly: Suppression of conditioned avoidance behavior in rats when administered perorally 60 min before measurement. The class given is functional. The conditions noted are these: po.
The test system of test [3] is Rattus norvegicus. The experiment in a line: Suppression of conditioned avoidance behavior in rats when administered intraperitoneally 30 min before measurement. The conditions noted are these: ip.
Test [4] has as its system Mus musculus. Put plainly: Antagonism of apomorphine-induced climbing in mice when administered perorally 60 min prior to apomorphine (1 mg/kg). The class given is functional. The conditions noted are these: po.
The target in test [5] is T1, Adrenergic receptor alpha-1 (Rattus norvegicus, UniProt P15823+P23944+P43140).
T1 sequence (P15823 whole entry): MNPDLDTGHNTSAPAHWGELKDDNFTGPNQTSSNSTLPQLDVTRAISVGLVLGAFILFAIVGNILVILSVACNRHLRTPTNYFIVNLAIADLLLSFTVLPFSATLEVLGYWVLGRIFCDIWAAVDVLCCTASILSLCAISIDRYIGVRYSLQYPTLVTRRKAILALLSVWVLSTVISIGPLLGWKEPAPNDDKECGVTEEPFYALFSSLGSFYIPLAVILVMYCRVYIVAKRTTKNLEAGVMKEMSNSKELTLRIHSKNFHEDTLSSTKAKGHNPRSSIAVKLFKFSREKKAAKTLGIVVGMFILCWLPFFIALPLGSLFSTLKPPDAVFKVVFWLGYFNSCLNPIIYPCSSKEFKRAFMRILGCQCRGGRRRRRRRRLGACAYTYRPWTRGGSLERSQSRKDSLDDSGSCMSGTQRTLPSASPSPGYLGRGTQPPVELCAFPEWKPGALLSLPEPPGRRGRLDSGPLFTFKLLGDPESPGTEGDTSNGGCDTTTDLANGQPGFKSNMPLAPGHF
T1 sequence (P23944 whole entry): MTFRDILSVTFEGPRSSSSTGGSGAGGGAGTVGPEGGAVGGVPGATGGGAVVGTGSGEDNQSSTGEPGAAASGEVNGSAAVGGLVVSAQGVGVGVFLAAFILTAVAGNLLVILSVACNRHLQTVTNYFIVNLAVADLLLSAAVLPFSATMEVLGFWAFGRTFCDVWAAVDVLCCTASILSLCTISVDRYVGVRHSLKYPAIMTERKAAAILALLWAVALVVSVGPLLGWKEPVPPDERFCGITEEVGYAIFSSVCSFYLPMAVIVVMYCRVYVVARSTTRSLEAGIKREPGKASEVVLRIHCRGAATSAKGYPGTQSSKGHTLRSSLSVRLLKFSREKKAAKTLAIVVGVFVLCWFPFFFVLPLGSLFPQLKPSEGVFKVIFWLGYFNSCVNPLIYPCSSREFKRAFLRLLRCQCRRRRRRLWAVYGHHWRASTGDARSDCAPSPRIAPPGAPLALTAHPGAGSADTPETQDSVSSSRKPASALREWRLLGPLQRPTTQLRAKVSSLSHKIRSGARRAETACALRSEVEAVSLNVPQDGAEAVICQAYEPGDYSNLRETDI
T1 sequence (P43140 whole entry): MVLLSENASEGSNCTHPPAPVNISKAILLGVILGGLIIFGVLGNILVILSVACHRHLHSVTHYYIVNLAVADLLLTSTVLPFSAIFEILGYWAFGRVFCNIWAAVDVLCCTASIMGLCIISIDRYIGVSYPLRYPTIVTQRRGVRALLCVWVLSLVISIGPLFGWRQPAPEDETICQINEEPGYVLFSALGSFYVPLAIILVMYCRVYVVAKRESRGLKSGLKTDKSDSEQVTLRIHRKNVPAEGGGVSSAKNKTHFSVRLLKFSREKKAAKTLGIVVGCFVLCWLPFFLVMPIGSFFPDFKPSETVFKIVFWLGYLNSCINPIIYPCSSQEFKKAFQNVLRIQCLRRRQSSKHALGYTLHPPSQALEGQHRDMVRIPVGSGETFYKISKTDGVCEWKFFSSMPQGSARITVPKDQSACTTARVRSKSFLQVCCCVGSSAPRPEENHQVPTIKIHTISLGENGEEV
Put plainly: Ability to inhibit [3H]WB-4101 binding to alpha-1 adrenergic receptor was determined in rat.

Test [6] has as its target Serotonin 2 (5-HT2) receptor (Rattus norvegicus, UniProt P30994+P08909+P14842). Put plainly: Ability to inhibit [3H]spiperone binding to 5-hydroxytryptamine 2 receptor determined in rat.
In test [7] the test system is Rattus norvegicus. The experiment in a line: Induction of catalepsy in rats when administered intraperitoneally 4 hr prior to measurement to groups of 9 animals. value is based on at least three dose levels(40% of animals showed catalepsy). The class given is functional. The conditions noted are these: ip.

Chain of D(2) dopamine receptor (P61169 whole entry): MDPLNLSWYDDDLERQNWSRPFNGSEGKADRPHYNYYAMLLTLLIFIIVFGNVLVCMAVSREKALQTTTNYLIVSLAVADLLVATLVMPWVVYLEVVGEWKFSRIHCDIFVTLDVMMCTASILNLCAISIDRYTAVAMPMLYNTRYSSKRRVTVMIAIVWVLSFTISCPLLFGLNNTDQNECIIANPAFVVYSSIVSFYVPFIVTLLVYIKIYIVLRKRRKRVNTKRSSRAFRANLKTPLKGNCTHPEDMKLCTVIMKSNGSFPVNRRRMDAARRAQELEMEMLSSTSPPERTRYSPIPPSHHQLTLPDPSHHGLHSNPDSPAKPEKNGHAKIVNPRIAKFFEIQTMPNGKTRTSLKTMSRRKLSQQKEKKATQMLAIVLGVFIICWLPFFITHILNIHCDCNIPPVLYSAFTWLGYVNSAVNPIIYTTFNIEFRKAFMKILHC

As to `CCS(=O)(=O)c1ccc(OC)c(-c2ccc(CN3CCN(c4ccccc4OC)CC3)[nH]2)c1`, the inhibition constant Ki at D(2) dopamine receptor came to 7.3 nM. The median effective dose (ED50) in the test on Mus musculus [1] was over 20 mg/kg; in the test on Rattus norvegicus [2], over 50 mg/kg; with Rattus norvegicus [3], over 20 mg/kg; in the test with Mus musculus [4], 35 mg/kg.
Turning to `O=C(NCCN1CCC(O)(c2ccc(Cl)cc2)CC1)c1ccc(F)cc1`, the Ki on D(2) dopamine receptor came to 480 nM; in test [5], 250 nM. Moreover, the figures for the ED50 in the test with Mus musculus [1], in the test with Rattus norvegicus [2] and with Mus musculus [4] were 9 mg/kg, over 50 mg/kg and 20 mg/kg, respectively.
`CCN1CCC[C@H]1CNC(=O)c1cc(S(=O)(=O)CC)ccc1OC`: the figures for the inhibition constant Ki (in test [6]; on D(2) dopamine receptor; in test [5]) were 54000 nM, 9.3 nM and 1100 nM, respectively. Moreover, the ED50 was over 10 mg/kg in the test with Mus musculus [1], 70 mg/kg with Rattus norvegicus [2] and 36 mg/kg with Mus musculus [4].
For `CCN1CCCC1c1ccc(-c2cc(S(=O)(=O)CC)ccc2OC)[nH]1` (configuration not stated), the inhibition constant Ki at D(2) dopamine receptor turned out to be 29 nM. The ED50 with Mus musculus [1] is 4.7 mg/kg; in the test on Rattus norvegicus [2], 35 mg/kg; with Mus musculus [4], 11.4 mg/kg.
`COc1ccccc1N1CCN(CCNC(=O)c2ccc(F)cc2)CC1`: the inhibition constant (Ki) in test [6] amounted to 700 nM; in test [5], 9 nM. Further, the ED50 is 0.4 mg/kg in the test with Mus musculus [1]; over 7.4 mg/kg in the test with Rattus norvegicus [7]; 30 mg/kg with Rattus norvegicus [2]; 0.74 mg/kg with Rattus norvegicus [3]; 15 mg/kg in the test with Mus musculus [4].
As to `O=C(CCCN1CCC(O)(c2ccc(Cl)cc2)CC1)c1ccc(F)cc1` [HALOPERIDOL], the 50% effective dose (ED50) in the test on Mus musculus [1] came to 0.08 mg/kg; in the test with Rattus norvegicus [7] it was 2 mg/kg; with Rattus norvegicus [2], 0.8 mg/kg; with Rattus norvegicus [3], 0.45 mg/kg.
With `OC1(c2ccc(Cl)cc2)CCN(Cc2ccc(-c3ccc(F)cc3)[nH]2)CC1`, the results for the inhibition constant (Ki) (in test [6]; at D(2) dopamine receptor; in test [5]) were 9300 nM, 1100 nM and 1600 nM, respectively. The median effective dose (ED50) with Mus musculus [1] was 25 mg/kg; in the test with Rattus norvegicus [2] it was over 50 mg/kg; in the test on Rattus norvegicus [3] it was over 20 mg/kg; with Mus musculus [4], 51 mg/kg.
As to `CCN1CCC[C@H]1CNC(=O)c1cc(S(N)(=O)=O)ccc1OC` [LEVOSULPIRIDE], the 50% effective dose (ED50) with Mus musculus [1] is over 21 mg/kg; with Rattus norvegicus [2], over 220 mg/kg; with Rattus norvegicus [3] it was over 100 mg/kg; in the test with Mus musculus [4], 195 mg/kg. Besides, the inhibition constant (Ki) in test [5] turned out to be 15000 nM.
Turning to `COc1ccccc1N1CCN(CCCC(=O)c2ccc(F)cc2)CC1` [FLUANISONE], the Ki in test [6] was 52 nM; at D(2) dopamine receptor it was 2.9 nM; in test [5], 0.87 nM. In addition, the ED50 with Mus musculus [1] was 0.4 mg/kg; with Rattus norvegicus [7] it was at least 22 mg/kg; in the test with Rattus norvegicus [2], over 50 mg/kg; in the test with Rattus norvegicus [3] it was 2.2 mg/kg; with Mus musculus [4] it was 25 mg/kg.
The compound `CCS(=O)(=O)c1ccc(OC)c(-c2ccc(CN3CCC(O)(c4ccc(Cl)cc4)CC3)[nH]2)c1` came in with an inhibitory constant (Ki) at D(2) dopamine receptor of 150 nM. Besides, the results for the ED50 in the test with Mus musculus [1] and in the test on Mus musculus [4] were over 20 mg/kg and over 100 mg/kg, respectively.
For the compound `COc1ccccc1N1CCN(Cc2ccc(-c3ccc(F)cc3)[nH]2)CC1`, the results for the Ki (in test [6]; on D(2) dopamine receptor; in test [5]) were 310 nM, 0.91 nM and 57 nM, respectively. Also, the ED50 in the test on Mus musculus [1] was 0.2 mg/kg; in the test with Rattus norvegicus [7] it was over 24 mg/kg; in the test on Rattus norvegicus [2], 8.5 mg/kg; in the test on Rattus norvegicus [3], 2.3 mg/kg; in the test on Mus musculus [4], 0.9 mg/kg.
